Assay results reported in patent publication US20070110815A1, “Micronised azodicarbonamide, and the preparation and use thereof” (priority 2005, published 2007).

Legend:
[1] = Particle size analysis by laser diffraction during micronisation; type: physicochemical
Protocol: A thorough fragmentation of dry powder forming each of these batches is carried out, feeding them at a rate of 4 kg/h into a known dry powder disintegration device, for example into a device of the Alpine® 100 AFG Jet Mill model from Hosokawa Micron Group. This device comprises a cylindrical milling chamber with a conical bottom which is made of stainless steel coated with an elastomer. This chamber has a diameter of 100 mm and a volume of 800 cm^3. The particles to disintegrate are introduced into the chamber by an endless screw. Then the particles are projected against each other by compressed air jets from 3 air nozzles having a diameter of 2 mm which run into each other at the same point. The obtained air stream carries then the disintegrated particles at 50 bar towards a turbo-selecting device which is integrated within the milling chamber. In this example this turbo-selecting device has the shape of a squirrel-cage which has adjustable rotational speed of 5000 to 16000 rpm.
This device allows the exit of the particles smaller than a determined size, in this case <5 μm, and repulses into the milling chamber the particles having a greater size. The fine particles (searched size) which leave the milling chamber are collected for example by means of a cyclone.
The sizes of the particles were then analysed. In order to analyse the diameters use was made of a RODOS & RODOS/M dry powder dispersion device (from Sympatec GmbH) and a VIBRI vibratory powder feed tool (from Sympatec GmbH) with a HELOS laser diffraction system (from Sympatec GmbH). The powders analysed were fed at a rate of 35% of the maximum rate. On passing through an air jet, the powder is subjected to shearing forces of around 3.0 bar. Using a vacuum (90-100 mbar) they are then sucked into the path of a HE/NE laser beam. The diffraction of the laser beam by the particles creates a model which is measured and converted by computer into a particle size distribution using software associated with the HELOS system.

[2] = oral administration; cited from earlier work
[3] = Particle size stability of micronised ADA in capsules on storage; type: physicochemical
Protocol: After having manufactured micronised ADA under the conditions of examples 1 and 2, a size distribution of the ADA crystals was obtained, as illustrated on the appended FIG. 2.
Thereafter the active substance was incorporated into capsules which have been stored for 11 months within a refrigerator at 8° C., in order to determine the stability of ADA according to the standards (International Harmonisation Conference: ICH).
The size of the ADA particles has been determined again at this moment as well as after 3 additional months within a stove at 25° C./60% humidity.

[4] = Comparative examination of bioavailability (biurea in blood after force feeding); type: in vivo; conditions: mice, force feeding, 10, 5 and 1.25 mg/kg, 30 minutes after ingestion, suspension in CMC, FIG. 1
Protocol: 54 mice are randomly divided into 9 groups of 6 animals and receive a dose of ADA by force feeding.
The concentration of biurea, the only catabolite of ADA “in vivo” (Concise International Chemical Assessment Document 16; World Health Organisation: Geneva, 1999) in the blood serum (μg/ml) was determined 30 minutes after ingestion by means of a high-pressure liquid chromatography method. This concentration represents a measurement of the bioavailability of ADA in the organism.
Analysis of the plasma samples was carried out by high-pressure liquid chromatography, followed by mass spectrometry, in accordance with the standards of the “Food and Drug (USA) Administration May 2001: Guidance for Industry: Bioanalytical method validation” (lowest quantification limit (LOQ) of 0.20 μg/ml and linear method up to 20 μg/ml).

rats = experiment: 28-day oral toxicity in rats; type: in vivo; conditions: daily 900, 150 and 25 mg/kg for 28 days, suspension in carboxymethylcellulose
Protocol: (§1) Tests were carried out on rats to which daily doses of 900, 150 and 25 mg of ADA according to the invention/kg of body weight were administered orally for 28 days. The ADA was in the form of a micronised powder according to the invention in suspension in carboxymethylcellulose. Likewise an identical test was carried out on dogs at daily doses for 28 days of 400, 100 and 25 mg of ADA according to the invention/kg of body weight.

dogs = experiment: 28-day oral toxicity in dogs; type: in vivo
Protocol: as §1
On the dogs that received 400 mg/kg/day for 28 days, a histological examination was also carried out with dissection of the kidneys.

healthy male volunteers = experiment: Examination of toxicity on human beings (urine examination by flow cytometry); type: in vivo; conditions: capsules, seven days, up to 6 g per day, limit of detection 2 μm
Protocol: “ESB free” gelatine-coated capsules containing a composition as described in example 4 were administered for seven days to healthy male volunteers at a dose ranging up to 6 g per day (single dose of 150 to 6,000 mg and repeated doses of 300 to 2,400 mg).
A urine examination was carried out using flow cytometry (limit of detection 2 μm).

[5] = test system: reactivity of the respiratory tracts; experiment: Reactivity of respiratory tracts in ovalbumin-sensitised rats; type: in vivo; conditions: sensitised Brown Norway rats, force feeding twice a day 125 and 250 mg/kg, day -1 to day 20, all doses of methacholine
Protocol: At day 0, Brown Norway rats (200-250 g) were sensitised by intraperitoneal administration (1 ml/rat) of ovalbumin (1 mg/ml) mixed with aluminium hydroxide (100 mg/ml).
In this experiment, micronised ADA according to the invention is administered to rats by force feeding in the form of a suspension in poloxamer 188. The administration takes place twice a day in doses of 125 and 250 mg/kg, from day −1 up to day 20.

[6] = water and organic solvents; cited from earlier work
[7] = End of micronisation, listed as A
[8] = Middle of micronisation, listed as A
[9] = Start of micronisation, listed as A
[10] = End of micronisation, listed as C
[11] = Middle of micronisation, listed as C
[12] = Start of micronisation, listed as C
[13] = Test date Aug. 7, 2005, 3 additional months at 25° C./60% humidity
[14] = Test date Jun. 20, 2004, after manufacture
[15] = Test date May 7, 2005, capsules stored 11 months in refrigerator at 8° C.
[16] = End of micronisation, listed as B
[17] = Middle of micronisation, listed as B
[18] = Start of micronisation, listed as B

NC(=O)N=NC(N)=O [Batch A, azodicarbonamide]
Granulometry of particles during micronisation d10 [1, 7]: 0.56 μm | Granulometry of particles during micronisation d50 [1, 7]: 1.51 μm | Granulometry of particles during micronisation d90 [1, 7]: 3.50 μm | Granulometry of particles during micronisation d10 [1, 8]: 0.56 μm | Granulometry of particles during micronisation d50 [1, 8]: 1.53 μm | Granulometry of particles during micronisation d90 [1, 8]: 3.55 μm | Granulometry of particles during micronisation d10 [1, 9]: 0.58 μm | Granulometry of particles during micronisation d50 [1, 9]: 1.61 μm | Granulometry of particles during micronisation d90 [1, 9]: 3.78 μm

NC(=O)N=NC(N)=O [ADA as commercially available, azodicarbonamide]
Formation of biurea crystals in the urine [2]: the formation of biurea crystals is quickly observed in the urine

NC(=O)N=NC(N)=O [Batch C, azodicarbonamide]
Granulometry of particles during micronisation d10 [1, 10]: 0.57 μm | Granulometry of particles during micronisation d50 [1, 10]: 1.58 μm | Granulometry of particles during micronisation d90 [1, 10]: 3.85 μm | Granulometry of particles during micronisation d10 [1, 11]: 0.57 μm | Granulometry of particles during micronisation d50 [1, 11]: 1.56 μm | Granulometry of particles during micronisation d90 [1, 11]: 3.69 μm | Granulometry of particles during micronisation d10 [1, 12]: 0.56 μm | Granulometry of particles during micronisation d50 [1, 12]: 1.47 μm | Granulometry of particles during micronisation d90 [1, 12]: 3.43 μm

NC(=O)N=NC(N)=O [Batch K9J, azodicarbonamide]
Particle sizes D10 [3, 13]: 0.76 μm | Particle sizes D50 [3, 13]: 2.05 μm | Particle sizes D10 [3, 14]: 0.56 μm | Particle sizes D50 [3, 14]: 1.51 μm | Particle sizes D10 [3, 15]: 0.72 μm | Particle sizes D50 [3, 15]: 1.86 μm

NC(=O)N=NC(N)=O [azodicarbonamide]
Stability of particle size on storage ([3]; no additive, 11 months 8° C. plus 3 months 25° C./60% humidity, FIG. 3): stability of ADA according to the invention clearly results | Bioavailability of ADA in the blood (concentration of biurea) [4]: appreciably better than the non-micronised ADA | Bioavailability of ADA in the blood (concentration of biurea) ([4]; listed as ADA according to the invention): even better bioavailability than completely dissolved ADA | Adverse effect (rats): In neither of the two tests was any adverse effect observed | Biurea crystals in kidneys (histological examination) (dogs; 400 mg/kg/day for 28 days): no biurea crystals were observed | Adverse effect (dogs; oral, daily 400, 100 and 25 mg/kg for 28 days): In neither of the two tests was any adverse effect observed | Kidney stones or cylinders in urine (healthy male volunteers): No kidney stones or cylinders were observed

NC(=O)N=NC(N)=O [Batch K9L, azodicarbonamide]
Particle sizes D10 [3, 13]: 0.76 μm | Particle sizes D50 [3, 13]: 2.08 μm | Particle sizes D10 [3, 14]: 0.57 μm | Particle sizes D50 [3, 14]: 1.58 μm | Particle sizes D10 [3, 15]: 0.72 μm | Particle sizes D50 [3, 15]: 1.88 μm

NC(=O)N=NC(N)=O [Batch B, azodicarbonamide]
Granulometry of particles during micronisation d10 [1, 16]: 0.59 μm | Granulometry of particles during micronisation d50 [1, 16]: 1.56 μm | Granulometry of particles during micronisation d90 [1, 16]: 3.68 μm | Granulometry of particles during micronisation d10 [1, 17]: 0.58 μm | Granulometry of particles during micronisation d50 [1, 17]: 1.59 μm | Granulometry of particles during micronisation d90 [1, 17]: 3.88 μm | Granulometry of particles during micronisation d10 [1, 18]: 0.58 μm | Granulometry of particles during micronisation d50 [1, 18]: 1.58 μm | Granulometry of particles during micronisation d90 [1, 18]: 3.71 μm

NC(=O)N=NC(N)=O [ADA, Azodicarbonamide]
Inhibition of the increase in reactivity of the respiratory tracts caused by antigen attack [5]: significant inhibition | Solubility [6]: not very soluble in water or in the majority of organic solvents

NC(=O)N=NC(N)=O [Batch K9K, azodicarbonamide]
Particle sizes D10 [3, 13]: 0.74 μm | Particle sizes D50 [3, 13]: 1.93 μm | Particle sizes D10 [3, 14]: 0.59 μm | Particle sizes D50 [3, 14]: 1.56 μm | Particle sizes D10 [3, 15]: 0.69 μm | Particle sizes D50 [3, 15]: 1.74 μm
